Columns and labels:
maximal electroshock = assay: Anticonvulsant effectiveness against maximal electroshock, mice; type: in vivo, mice (Charles River strain); conditions: for Time of peak activity: mice, oral, maximal electroshock
Procedure: (§1) All tests, with the exceptions noted, were conducted on adult albino male mice (Charles River strain); the dosage consisted of the active agent suspended in 10% aqueous acacia and was administered orally unless otherwise indicated.
Anticonvulsant effectiveness of each agent against maximal electroshock was determined at the time of peak effect. The time of peak anticonvulsant activity was determined by administering dosages of various sizes to a group of animals and administering a maximal electroshock to the animals at intervals thereafter by supplying 60 ma. current through a corneal electrode for 0.2 second. […] The time of peak effect thus determined was used for all subsequent tests of anticonvulsant activity on the same active agent.

[1] = literature / prior knowledge; cited from earlier work
Metrazol = assay: Anticonvulsant effectiveness against convulsive dose of Metrazol, mice; type: in vivo, mice (Charles River strain); conditions: oral
Procedure: as §1
Anticonvulsant effectiveness was determined against a convulsive dose of Metrazol (106.25 mg/kg) injected subcutaneously; the criterior for effectiveness was failure to show clonic convulsive seizures. Anticonvulsant activity was determined against a lethal dose of strychnine sulfate (1.5 mg/kg) injected subcutaneously; the criterion was failure to die, even though seizures appeared.

central nervous system = assay: Hypnotic activity: loss of the righting reflex (onset of sleep); type: in vivo, mice (Charles River strain); conditions: any dosage less than a lethal dose for the compounds of the invention
Procedure: as §1

[2] = prior knowledge; cited from earlier work

CCC1(c2ccccc2)C(=O)N(COC)C(=O)N(COC)C1=O [Example 1, 1,3-dimethoxymethyl-5-ethyl-5-phenyl barbituric acid]
Duration of anticonvulsant effect against maximal electroshock (in words) (maximal electroshock; 0.1 millimole/kg): protection continued at about the same level for more than eight hours | Onset of protection against maximal electroshock (in words) (maximal electroshock; 0.1 millimole/kg): only after two hours | Time of peak activity (maximal electroshock): 2 h | Change in ED50 to protect against maximal electroshock on repeated daily dosage (maximal electroshock; repeated daily dosage of same animals for four days): no significant change | Hypnotic activity, known or reported [1]: without effect

CCCCCCCCCCCCOCN1C(=O)N(COCCCCCCCCCCCC)C(=O)C(CC)(CC)C1=O [Example 10, 1,3-di-n-dodecyloxymethyl-5,5-diethyl barbituric acid]
Time of peak activity (in words) (Metrazol): about one hour

CCC1(CC)C(=O)N(COC)C(=O)N(COC)C1=O [Example 9, 1,3-dimethoxymethyl-5,5-diethylbarbituric acid]
Time of peak activity (Metrazol): 1 h

COCN1C(=O)NC(c2ccccc2)(c2ccccc2)C1=O [Example 2, 3-methoxymethyl-5,5-diphenylhydantoin]
Onset of anticonvulsant activity (maximal electroshock) after ingestion (maximal electroshock; after ingestion): less than 0.5 hour

CCC1(c2ccccc2)C(=O)NC(=O)NC1=O [phenobarbital sodium, reference compound]
Duration of anticonvulsant effect against maximal electroshock (in words) (maximal electroshock; 0.1 millimole/kg): protection began to decrease after four hours and was nearly gone by eight hours | Onset of protection against maximal electroshock (maximal electroshock; 0.1 millimole/kg): less than 0.5 hour

CCC1(c2ccccc2)C(=O)NC(=O)NC1=O [Phenobarbital, phenobarbital]
Hypnotic activity (loss of the righting reflex) (central nervous system): did exhibit hypnotic activity | Hypnotic activity, known or reported [1]: exhibits hypnotic activity

O=C1NC(=O)C(c2ccccc2)(c2ccccc2)N1 [diphenylhydantoin]
Hypnotic activity, known or reported [1]: not hypnotic | Undesirable side effects [2]: hypertrophic gingivitis, megaloblastic anemia, toxic psychoses, and hirsutism

CCCCCCCCCCCCOCN1C(=O)N(COCCCCCCCCCCCC)C(=O)C(CC)(c2ccccc2)C1=O [Example 8, 1,3-dilauryloxymethyl-5-ethyl-5-phenyl barbituric acid]
Time of peak activity (maximal electroshock): 2 h
